# According to patent publication US11814364B2, “Pyridine N-oxide derivatives useful as factor XIa inhibitors” (Janssen Pharmaceutica NV, priority 2021, dated 2023):
# pIC50: −log10 of the molar value.
# Biological target: human plasma kallikrein (Homo sapiens, UniProt P03952)
# Assay: Kallikrein inhibition FLINT assay with quenched AMC peptide substrate Z-Gly-Pro-Arg-AMC (end point EP or kinetic KIN reads)
# Type: biochemical
# Conditions: kinetic reads at 5 min intervals over 30 min; read-out: Kallikrein (KIN) IC50
# How it was run: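 Enzyme and compound were preincubated 30 min before adding 50 μM AMC substrate in pH 7.5 Tris/NaCl/CaCl2/BSA/CHAPS buffer. AMC release was read at 30 min endpoint or every 5 min.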
# human plasma kallikrein, sequence (P03952 391-638 limits assumed): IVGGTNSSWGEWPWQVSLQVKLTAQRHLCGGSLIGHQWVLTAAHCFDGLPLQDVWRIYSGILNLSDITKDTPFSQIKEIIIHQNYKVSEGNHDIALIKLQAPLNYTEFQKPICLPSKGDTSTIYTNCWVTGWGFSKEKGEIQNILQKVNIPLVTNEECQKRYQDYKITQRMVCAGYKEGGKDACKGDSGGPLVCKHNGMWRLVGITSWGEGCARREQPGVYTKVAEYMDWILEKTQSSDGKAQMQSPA
# human plasma kallikrein, sequence (P03952 20-390 partner limits assumed): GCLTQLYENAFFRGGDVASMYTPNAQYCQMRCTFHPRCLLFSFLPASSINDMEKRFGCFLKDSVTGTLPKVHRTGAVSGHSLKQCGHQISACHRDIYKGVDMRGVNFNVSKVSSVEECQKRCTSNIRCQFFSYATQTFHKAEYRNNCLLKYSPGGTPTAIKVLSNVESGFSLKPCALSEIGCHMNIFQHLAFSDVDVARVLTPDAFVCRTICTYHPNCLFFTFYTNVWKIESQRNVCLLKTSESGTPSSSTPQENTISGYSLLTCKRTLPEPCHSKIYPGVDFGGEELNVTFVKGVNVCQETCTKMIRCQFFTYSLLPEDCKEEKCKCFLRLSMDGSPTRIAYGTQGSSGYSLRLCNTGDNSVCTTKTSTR
row,pIC50,SMILES
1,6.86,"COC(=O)Nc1ccc(-c2cnn(C(Cc3cccc(OC)c3)c3ccc(-c4c(-n5cnnn5)ccc(Cl)c4F)c[n+]3[O-])c2)cc1 (single isomer, unassigned) [Example P206]"
2,7.50,Cn1ncnc1-c1cnn(C(CCOC(F)F)c2ccc(-c3c(-n4cc(C(F)(F)F)nn4)ccc(Cl)c3F)c[n+]2[O-])c1 (stereo not shown) [Example P757]
3,6.37,"CN(CC(c1ccc(-c2c(-n3cnnn3)ccc(Cl)c2F)c[n+]1[O-])n1cc(-c2ccnc(C(F)(F)F)c2)cn1)C(=O)c1ccn(C)c(=O)c1 (single isomer, unassigned) [Example P434]"
4,6.78,[O-][n+]1cc(-c2c(-n3cnnn3)ccc(Cl)c2F)ccc1[C@@H](CC1CC1)n1cc(-c2c(F)cnn2C(F)F)cn1 [Example P628]
5,7.86,COC(=O)Nc1ccc(-c2cnn(C(CC3CCCCO3)c3ccc(-c4c(-n5cnnn5)ccc(Cl)c4F)c[n+]3[O-])c2)cc1 (stereo not shown) [Example P220]
6,7.42,"O=C1CCCN1CC(c1ccc(-c2c(-n3cnnn3)ccc(Cl)c2F)c[n+]1[O-])n1cc(-c2cc[n+]([O-])c(C(F)F)c2)cn1 (single isomer, unassigned) [Example P362]"
7,6.67,[O-][n+]1cc(-c2c(-n3cc(Cl)nn3)ccc(Cl)c2F)ccc1[C@@H](CCOC(F)F)n1cc(-c2cnn(C(F)F)n2)cn1 [Example P666]
8,7.49,Cn1nnc(F)c1-c1cnn(C(Cc2ccn(C(F)F)n2)c2ccc(-c3c(-n4cc(Cl)nn4)ccc(Cl)c3F)c[n+]2[O-])c1 (stereo not shown) [Example P795]
9,6.67,Cn1cncc1-c1cnn(C(CC2CC2)c2ccc(-c3c(-n4cnnn4)ccc(Cl)c3F)c[n+]2[O-])c1 (stereo not shown) [Example P495]
10,7.26,CC(=O)N(C)CC(c1ccc(-c2c(-n3cnnn3)ccc(Cl)c2F)c[n+]1[O-])n1cc(-c2ccncc2)cn1 (stereo not shown) [Example P302]
11,8.11,Cc1cc(-c2cnn(C(CCOC(F)F)c3ccc(-c4c(-n5cnnn5)ccc(Cl)c4F)c[n+]3[O-])c2)ccn1 (stereo not shown) [Example P307]
12,7.44,"COC(=O)N(C)CC(c1ccc(-c2c(-n3cnnn3)ccc(Cl)c2F)c[n+]1[O-])n1cc(-c2ccnc(C(F)(F)F)c2)cn1 (single isomer, unassigned) [Example P381]"
13,8.04,[O-][n+]1cc(-c2c(-n3cnnn3)ccc(Cl)c2F)ccc1C(Cn1cccn1)n1cc(-c2ccnc(F)c2)cn1 (stereo not shown) [Example P309]
14,8.24,"O=C(O)c1ccc(-c2cnn(C(CCOC(F)F)c3ccc(-c4c(-n5cc(C(F)(F)F)nn5)ccc(Cl)c4F)c[n+]3[O-])c2)cc1F (single isomer, unassigned) [Example P887]"
15,7.51,"COC(=O)N(C)CC(c1ccc(-c2c(-n3cnnn3)ccc(Cl)c2F)c[n+]1[O-])n1cc(-c2ccnc(F)c2)cn1 (single isomer, unassigned) [Example P356]"
16,8.24,COc1cc(C(CC2CC2C(N)=O)n2cc(-c3ccc(N)nc3C)cn2)[n+]([O-])cc1-c1c(-n2cnnn2)ccc(Cl)c1F (stereo not shown) [Example P247]
17,7.44,"O=C(NC1CC1)c1ccc(-c2cnn(C(CC3CCCCO3)c3ccc(-c4c(-n5cnnn5)ccc(Cl)c4F)c[n+]3[O-])c2)cc1 (single isomer, unassigned) [Example P77]"
18,8.59,Nc1ccc(-c2cnn(C(Cn3cc(F)cn3)c3ccc(-c4c(-n5cnnn5)ccc(Cl)c4F)c[n+]3[O-])c2)c(F)n1 (stereo not shown) [Example P281]
19,6.58,O=C(O)c1ccc(-c2cnn(C(Cc3ccccc3)c3ccc(-c4c(OCC(F)(F)F)ccc(Cl)c4F)c[n+]3[O-])c2)cc1 (stereo not shown) [Example Q4]
20,8.60,NC(=O)c1ccc(-c2cnn(C(Cc3ccn(C(F)F)n3)c3ccc(-c4c(-n5cc(Cl)nn5)ccc(Cl)c4F)c[n+]3[O-])c2)cc1F (stereo not shown) [Example P894]
21,8.52,Nc1ccc(-c2cnn(C(Cn3cccn3)c3ccc(-c4c(-n5cnnn5)ccc(Cl)c4F)c[n+]3[O-])c2)c(F)n1 (stereo not shown) [Example P256]
22,6.80,[O-][n+]1cc(-c2c(-n3cnnn3)ccc(Cl)c2F)ccc1C(Cn1cc(F)cn1)n1cc(-c2cc(C(F)(F)F)ncn2)cn1 (stereo not shown) [Example P468]
23,8.35,COC(=O)Nc1ccc(-c2cnn(C(CC3CC3)c3cc(OC)c(-c4c(-n5cnnn5)ccc(Cl)c4F)c[n+]3[O-])c2)cc1 (stereo not shown) [Example P93]
24,6.32,O=C(O)c1ccc(-c2cnn(C(CC3OCCc4ccccc43)c3ccc(-c4cc(Cl)ccc4-n4cnnn4)c[n+]3[O-])c2)cc1 (stereo not shown) [Example P128]
25,7.40,"[2H]C([2H])([2H])OCCC(c1ccc(-c2c(-n3cnnn3)ccc(Cl)c2F)c[n+]1[O-])n1cc(-c2ccnc(C(F)(F)F)c2)cn1 (single isomer, unassigned) [Example P386]"
26,8.19,[O-][n+]1cc(-c2c(-n3cnnn3)ccc(Cl)c2F)ccc1[C@@H](Cc1ccc(C(F)(F)F)nc1)n1cc(-c2ccnn2C(F)F)cn1 [Example P777]
27,8.14,"[O-][n+]1cc(-c2c(-n3cnnn3)ccc(Cl)c2F)ccc1C(Cn1cc(F)c(COC(F)F)n1)n1cc(-c2ccnc(C(F)(F)F)c2)cn1 (single isomer, unassigned) [Example P570]"
28,6.73,Cn1cnc(Cl)c1-c1cnn([C@H](CC2CC2)c2ccc(-c3c(-n4cnnn4)ccc(Cl)c3F)c[n+]2[O-])c1 [Example P848]

row,pIC50,SMILES
1,7.02,[O-][n+]1cc(-c2cc(Cl)ccc2-n2cnnn2)ccc1C(Cn1cc(C(F)(F)F)cn1)n1cc(-c2ccnc(F)c2)cn1 (stereo not shown) [Example P321]
2,8.39,COc1cc(C(CC2CC2)n2cc(-c3ccc(N)nc3F)cn2)[n+]([O-])cc1-c1c(-n2cnnn2)ccc(Cl)c1F (stereo not shown) [Example P85]
3,6.24,CC(C)Oc1cc(C(CC2CC2)n2cc(-c3cnn(C)c(=O)c3)cn2)[n+]([O-])cc1-c1c(-n2cnnn2)ccc(Cl)c1F (stereo not shown) [Example P146]
4,5.11,O=C(O)c1ccc(-c2cnn(C(c3cn(C4CCNCC4)nn3)c3ccc(-c4c(-n5cnnn5)ccc(Cl)c4F)c[n+]3[O-])c2)cc1 (stereo not shown) [Example P52]
5,7.20,"Cn1ncnc1-c1cnn(C(CCOC(F)F)c2ccc(-c3c(-n4nncc4OC(F)F)ccc(Cl)c3F)c[n+]2[O-])c1 (single isomer, unassigned) [Example P800]"
6,8.00,COc1cc(C(Cc2ccn(C(F)F)n2)n2cc(-c3ccc(C(N)=O)c(F)c3)cn2)[n+]([O-])cc1-c1c(C(F)F)ccc(Cl)c1F (stereo not shown) [Example Q75]
7,6.08,"NC(=O)c1ccc(-c2cnn(C(CC3CC3)c3ccc(-c4c(-n5cnnn5)ccc(Cl)c4F)c[n+]3[O-])c2)cc1F (single isomer, unassigned) [Example P946]"
8,7.36,"CN(CC(c1ccc(-c2c(-n3cnnn3)ccc(Cl)c2F)c[n+]1[O-])n1cc(-c2ccnc(C(F)(F)F)c2)cn1)C(=O)c1ccccc1 (single isomer, unassigned) [Example P423]"
9,6.02,Cc1cc(C(CC2CC2)n2cc(-c3cnn(C)c(=O)c3)cn2)[n+]([O-])cc1-c1c(-n2cnnn2)ccc(Cl)c1F (stereo not shown) [Example P130]
10,6.09,[O-][n+]1cc(-c2c(-n3cnnn3)ccc(Cl)c2F)ccc1C(CC1CC1)n1cc(-c2ncns2)cn1 (stereo not shown) [Example P525]
11,7.59,CC(C)(C)c1cc(-c2cnn(C(Cn3cc(F)cn3)c3ccc(-c4c(-n5cnnn5)ccc(Cl)c4F)c[n+]3[O-])c2)ccn1 (stereo not shown) [Example P395]
12,7.95,[O-][n+]1cc(-c2c(-n3cnnn3)ccc(Cl)c2F)ccc1[C@@H](Cc1nccs1)n1cc(-c2ccnn2C(F)F)cn1 [Example P718]
13,7.05,COCC[C@H](c1ccc(-c2c(-n3cnnn3)ccc(Cl)c2F)c[n+]1[O-])n1cc(-c2cc(C(F)(F)F)nn2C)cn1 [Example P619]
14,7.84,COc1cc([C@@H](CC2CC2)n2cc(-c3ccc(C(=O)O)cc3)cn2)[n+]([O-])cc1-c1cc(Cl)ccc1C#N [Example Q51]
15,8.01,COC(=O)Nc1ccc(-c2cnn(C(Cc3ccc(F)cc3)c3ccc(-c4c(-n5cnnn5)ccc(Cl)c4F)c[n+]3[O-])c2)cc1 (stereo not shown) [Example P117]
16,6.82,[O-][n+]1cc(-c2c(-n3cnnn3)ccc(Cl)c2F)ccc1C(CCOC(F)(F)F)n1cc(-c2ccncn2)cn1 (stereo not shown) [Example P366]
17,8.68,Cn1ccc(CC(c2ccc(-c3c(-n4cnnn4)ccc(Cl)c3F)c[n+]2[O-])n2cc(-c3ccnc(C(F)(F)F)c3)cn2)n1 (stereo not shown) [Example P377]
18,7.31,"Cn1ncc(-c2cnn(C(CC3CC3)c3cc(Cl)c(-c4c(-n5cnnn5)ccc(Cl)c4F)c[n+]3[O-])c2)cc1=O (single isomer, unassigned) [Example P190]"
19,6.54,[O-][n+]1cc(-c2c(-n3cnnn3)ccc(Cl)c2F)ccc1[C@@H](CC1CC1)n1cc(-c2nnn(C(F)F)c2Cl)cn1 [Example P604]
20,~6.37,Cn1ncnc1-c1cnn(C(CCOC(F)(F)F)c2ccc(-c3c(-n4cc(C(F)(F)F)nn4)ccc(Cl)c3F)c[n+]2[O-])c1 (stereo not shown) [Example P840]
21,7.17,O=C1c2ccccc2CN1CC(c1ccc(-c2cc(Cl)ccc2-n2cnnn2)c[n+]1[O-])n1cc(-c2ccncc2)cn1 (stereo not shown) [Example P293]
22,6.68,Cn1nnc(-c2cnn([C@H](CCOC(F)F)c3ccc(-c4c(-n5cc(Cl)nn5)ccc(Cl)c4F)c[n+]3[O-])c2)c1F [Example P705]
23,7.03,"CN(CC(c1ccc(-c2c(-n3cnnn3)ccc(Cl)c2F)c[n+]1[O-])n1cc(-c2ccnc(C(F)(F)F)c2)cn1)C(=O)CCC(=O)N1CCCCC1 (single isomer, unassigned) [Example P400]"
24,7.84,[O-][n+]1cc(-c2c(-n3cnnn3)ccc(Cl)c2F)ccc1C(CCOC(F)F)n1cc(-c2ccnc(C(F)(F)F)c2)cn1 (stereo not shown) [Example P462]
25,6.72,O=C(NC1CC1)c1ccc(-c2cnn(C(Cc3ccc(F)cc3)c3ccc(-c4c(-c5cnco5)ccc(Cl)c4F)c[n+]3[O-])c2)cc1 (stereo not shown) [Example P136]
26,7.83,COc1cc(C(CC2CC2C(=O)N2CCCCC2)n2cc(-c3ccc(N)nc3C)cn2)[n+]([O-])cc1-c1c(-n2cnnn2)ccc(Cl)c1F (stereo not shown) [Example P248]
27,6.60,[O-][n+]1cc(-c2c(-n3cnnn3)ccc(Cl)c2F)ccc1C(CC1CC1)n1cc(-c2ccc3c(c2)OCCO3)cn1 (stereo not shown) [Example P271]
